The values below come from patent US5525626A (priority 1989, dated 1996).

The subject of one data set is malignant cell growth. The conditions noted are these: cited from earlier work.
Data set [1] deals with U 178 MG, TP 410 N, TP 242 MG, TP 336 MG and A 431 cells. The conditions noted are these: coumarin in the corresponding concentrations. The procedure:
(§1) The neuroblastoma cell line and the three glioblastoma cell lines were cultivated in Ham's F10 medium enriched with 10% fetal calf serum (FCS) and the usual quantity of penicillin, streptomycin (Pen/Strep) and glutamine. The epidermoidal cell line was cultivated in modified Eagle's Medium (MEM), likewise enriched with 10% (FCS) and the usual quantity of glutamine and Pen/Strep.
Untreated cells served as a control. Subsequently, the cells were incubated for 8 hours with ^3 H-thymidine. The radioactivity absorbed by the cells was measured in the usual way.

The test system is the same in data set [2]. Nature of the data set: growth curves of five tumor cell lines, comparison with coumarin. It counts as cell-based, human. The note with it: corresponding concentrations, up to 12 days. The procedure: as §1
In each case 5×10^4 cells were plated out in T25 bottles, the untreated cells being incubated in analogous conditions as control. The cell count was microscopically determined after 3, 5, 7, 10 and 12 days.

For another data set, the system named is T4 lymphocytes. The note with it: low concentrations; cited from earlier work.
Another data set has as its system LNCap cells. The data set can be described thus: cell growth in combination with testosterone. Format: cell-based, human. The conditions noted are these: FIG. 9.

The structures appear in SMILES notation.

With `O=c1ccc2ccccc2o1` [coumarin, 1,2-Benzopyrone, reference compound], the malignant cell growth result in the data set with malignant cell growth (cell cultures and animal experiments) was “inhibits malignant cell growth in cell cultures and in animal experiments”. The side-effects in mammals entry in the data set with malignant cell growth (compared with biological activity) is recorded as “side-effects in the case of mammals are to be disregarded compared with biological activity”. In addition, the “difference from control in pre-trial” value in data set [1] is on record as “no significant difference could be observed”. Moreover, the “growth-inhibiting activity (growth curve) versus control” value in data set [2] was “no significant difference could be observed”.

With `O=P1(N(CCCl)CCCl)NCCCO1` (stereo not drawn) [cyclophosphamide], the “biological activity of T4 lymphocytes” value in the data set on T4 lymphocytes is reported as “inhibits the biological activity of T4 lymphocytes”.

With `O=c1oc2ccccc2cc1O` [3-OH-1,2-BP, reference compound], the “effect on cell growth, comparison compound” value in the data set with LNCap cells was “essentially ineffective”.
